Each structure is given as a SMILES string. In brackets after ≈: the same amount, converted by molar mass.

Consider eight molecules from ChEMBL document CHEMBL4811224, “Antibacterial Prenylated p-Hydroxybenzoic Acid Derivatives from Oberonia myosurus and Identification of Putative Prenyltransferases” (2021).

The subject of the experiment is Staphylococcus aureus. Put plainly: Antibacterial activity against Staphylococcus aureus subsp. aureus ATCC 29213 assessed as bacterial growth inhibition incubated for 24 hrs by Reed-Muench method. Format: functional.
Consider `CC(C)=CCc1cc(C(=O)O)cc(CC=C(C)C)c1O`, for which the MIC50 came out at 7.6 µg/mL (≈ 27.7 µM).
As for `CC1(C)S[C@@H]2[C@H](NC(=O)Cc3ccccc3)C(=O)N2[C@H]1C(=O)[O-].[Na+]` [PENICILLIN G SODIUM], the MIC50 worked out at 0.53 µg/mL.
For the molecule `C=C(C)C(O)Cc1cc(C(=O)O)cc(CC=C(C)C)c1O` (stereo not drawn), the MIC50 worked out at 89 µg/mL (≈ 307 µM).
Regarding `CC(C)=CCc1cc(C(=O)O[C@H](C)[C@@](C)(O)C(=O)O)cc(CC=C(C)C)c1O`, the MIC50 was 23 µg/mL (≈ 58.9 µM).
As to `CC(C)=CCc1cc(C(=O)O)cc2c1OC(C)(C)C=C2`, the MIC50 stood at 15 µg/mL (≈ 55.1 µM).
Consider `CC(C)=CCc1cc(C(=O)O)cc2c1OC(C)(C)CC2=O`, for which the MIC50 worked out at 93 µg/mL (≈ 323 µM).
Regarding `CC(C)=CCc1cc(C(=O)O[C@@H]2CC(C(=O)O)=C[C@@H](O)[C@H]2O)cc2c1OC(C)(C)C=C2`, the MIC50 was 56 µg/mL (≈ 131 µM).
With `C=C(C)C(O)Cc1cc(C(=O)O)cc2c1OC(C)(C)C=C2` (stereo not drawn), the MIC50 is 81 µg/mL (≈ 281 µM).
